Measurements from US11560380B2, “Substituted naphthalene diimides and their use” (UCL Business Ltd, priority 2019, dated 2023).
Where two headings read alike, the source gives them in different places. Blank lines part the entries; values can stand above or below the molecule they belong to.

What was measured:
LNCaP = assay: 72 hr XTT cell viability assay, LNCaP; format: cell-based; conditions: Homo sapiens, read-out: IC50 cell growth inhibition
From the text: (§1) The CyQUANT XTT Cell Viability Assay (Invitrogen) is a complete, optimized assay that generates a consistent colorimetric detection of viable mammalian cells. The assay kit consists of two reagents, XTT Reagent (2,3-bis-(2-methoxy-4-nitro-5-sulfophenyl)-2H-tetrazolium-5-carboxanilide) and Electron Coupling Reagent. XTT Reagent is used to assess cell viability as a function of cellular redox potential, and the electron coupling reagent improves the dynamic range of the assay. The kit was used as per the manufacturers' instructions.

PC-3 = assay: 72 hr XTT cell viability assay, PC-3; format: cell-based; conditions: Homo sapiens; PC-3, 72 hr XTT; read-out: IC50 cell growth inhibition
From the text: as §1

BX-PC3 = assay: 96 hr SRB cell growth inhibition, BX-PC3; format: cell-based; conditions: Homo sapiens, BXPC-3; BX-PC3, 96 hr SRB
[1] = Mouse microsomal stability; format: in vitro ADME; conditions: mouse microsomes; read-out: t1/2 mouse microsomal stability
MIA-PACA2 cells = assay: MTS cell proliferation assay (CellTiter 96 AQueous One Solution), 96 hr; format: cell-based; conditions: Homo sapiens, MIA PaCa-2, 96 hr MTS assay
From the text: The CellTiter 96® AQueous One Solution Cell Proliferation Assay ([…]) is a colorimetric method for determining the number of viable cells in proliferation or cytotoxicity assays. The CellTiter 96® AQueous One Solution Reagent contains a novel tetrazolium compound [3-(4,5-dimethylthiazol-2-yl)-5-(3-carboxymethoxyphenyl)-2-(4-sulfophenyl)-2H-tetrazolium, inner salt; MTS] and an electron coupling reagent (phenazine ethosulfate; PES). PES has enhanced chemical stability, which allows it to be combined with MTS to form a stable solution. The MTS tetrazolium compound (Owen's reagent) is bioreduced by cells into a colored formazan product that is soluble in tissue culture medium. Assays are performed by adding a small amount of the CellTiter 96@ AQueous One Solution Reagent directly to culture wells, incubating for 1-4 hours and then recording the absorbance at 490 nm with a 96-well plate reader. The quantity of formazan product as measured by absorbance at 490 nm is directly proportional to the number of living cells in culture. The kit was used as per the manufacturers' instructions. After 96-hour incubation with each example compound in MIA-PACA2 cells, the cell proliferation of each sample was measured using the MTS Cell Titre 96 Aqueous One Solution Cell Proliferation Assay (Promega Ltd). The percentage of inhibition was calculated against the mean of the DMSO treated controls samples.

CAPAN-1 = assay: 96 hr SRB cell growth inhibition, CAPAN-1; format: cell-based; conditions: Homo sapiens; CAPAN-1, 96 hr SRB
22RV1 = assay: 72 hr XTT cell viability assay, 22RV1; format: cell-based; conditions: Homo sapiens; 22RV1, 72 hr XTT; read-out: IC50 cell growth inhibition
From the text: as §1

GQ = assay: FRET melting with GQ; format: binding
DU145 = assay: 72 hr XTT cell viability assay, DU145; format: cell-based; conditions: Homo sapiens, DU-145; DU145, 72 hr XTT; read-out: IC50 cell growth inhibition
From the text: as §1

VCaP = assay: 72 hr XTT cell viability assay, VCaP; format: cell-based; conditions: Homo sapiens, read-out: IC50 cell growth inhibition
From the text: as §1

[2] = Plasma protein binding in vitro; format: in vitro ADME
PANC-1 = assay: 96 hr SRB cell growth inhibition, PANC-1; format: cell-based; conditions: Homo sapiens; PANC-1, 96 hr SRB
[3] = Stability in saline at 0° C.; format: physicochemical
[4] = In vitro blood/plasma partitioning; format: in vitro ADME; conditions: blood and plasma
MIA-PACA2^gemR = assay: 96 hr SRB cell growth inhibition, MIA-PACA2 gemR; format: cell-based; conditions: Homo sapiens, MIA PaCa-2
MIA-PACA2 = assay: 96 hr SRB cell growth inhibition, MIA-PACA2; format: cell-based; conditions: for IC50: Homo sapiens, MIA PaCa-2, MIA-PACA2, 96 hr SRB
MIA-PACA2 tumours = assay: In vivo xenograft efficacy study, MIA-PACA2 model; conditions: for complete regression in tumour volume at the end of the dosing period: 1 mg/kg IV, 28 days; for tumours not showing complete regression, versus vehicle control: minority of tumours in the group
Procedure: Mice aged 5-7 weeks weighing approximately 25-32 g were implanted for the study and purchased from Charles River. The pancreatic tumour cell implantation procedure involved MIA-PACA2 cells (1×10^7 in Matrigel) being implanted subcutaneously using a 22-gauge needle onto the rear flank of the mice. Parameters evaluated include: tumour size and animal bodyweight. Tumour volume was measured three times weekly and bodyweight at least 3 times weekly. Allocation to treatment groups was done randomly when tumours reached approximately 50 mm^3 for animals in the efficacy study. […] Each group comprised 8 animals. All protocols used in this study were approved by the appropriate Animal Welfare and Ethical Review Board, and all procedures were carried out under the guidelines of the UK Animal (Scientific Procedures) Act 1986.
The data shown is mean±SD n=8 up to day 23 and n=4 to the end of the study. […] The starting tumour volumes were […]. Example 1 was active in both of the dosage regimens examined, 1× weekly and 2× weekly, both at a 1 mg/kg dose. Both had ⅝ complete regression in tumour volume at the end of the dosing period.

[5] = Aqueous solubility of salt; format: physicochemical; conditions: water; HCl/formate salt

IC50 (LNCaP): 3860 nM
IC50 (PC-3): 4820 nM
SMILES: C[C@]12CC[C@H](O)CC1=CC[C@@H]1[C@@H]2CC[C@]2(C)C(c3cccnc3)=CC[C@@H]12 [Abiraterone]

SMILES: O=C1c2cc(-c3ccc(CN4CCCC4)cc3)c3c4c(cc(NCCN5CCCC5)c(c24)C(=O)N1CCCN1CCOCC1)C(=O)N(CCCN1CCOCC1)C3=O [Example 1, 2,7-bis(3-morpholinopropyl)-4-((2-(pyrrolidin-1-yl)ethyl)amino)-9-(4-(pyrrolidin-1-ylmethyl)phenyl)benzo[lmn][3,8]phenanthroline-1,3,6,8(2H,7H)-tetraone]
IC50 (BX-PC3): 2.6 nM
half-life [1]: 268 min
IC50 (MIA-PACA2 cells; read-out: ABS IC50): 0.056 nM
IC50 (MIA-PACA2 cells; read-out: Rel IC50): 0.035 nM
IC50 (CAPAN-1): 5.9 nM
IC50 (22RV1): 90 nM
FRET ΔTm, ° C. with GQ (GQ): 23.1 °C
IC50 (LNCaP): 247 nM
IC50 (DU145): 32 nM
IC50 (VCaP): 68 nM
fraction unbound [2]: 0.339
IC50 (PANC-1): 1.4 nM
IC50 (PC-3): 3 nM
Stability in saline at 0° C. [3]: >1 month
blood plasma ratio [4]: 6.1
IC50 (MIA-PACA2^gemR): 3.8 nM
IC50 (MIA-PACA2): 1.3 nM
greater cellular potency relative to C1 (MIA-PACA2; compared with C1): 10 fold
complete regression in tumour volume at the end of the dosing period (MIA-PACA2 tumours; 1× weekly): ⅝
complete regression in tumour volume at the end of the dosing period (MIA-PACA2 tumours; 2× weekly): ⅝
tumour regrowth in complete regression cohorts (MIA-PACA2 tumours; 28 days post-dosing): no regrowth seen after 28 days post-dosing
tumour growth and tumour size (MIA-PACA2 tumours; MIA-PACA2 xenograft, 28 days IV administration, followed by 28 days measurement): inhibited the growth of the pancreatic tumour and reduced the tumour's size considerably more than the comparative compound C1 or the known anti-cancer drug, Gemcitabine
tolerability (MIA-PACA2 tumours; compound and dosing schedules, IV, mice): well-tolerated showing no sign of adverse effects
tumours not showing complete regression, versus vehicle control (MIA-PACA2 tumours): reductions in tumour growth, leading to consistently smaller volumes than in the vehicle control groups

IC50 (MIA-PACA2 cells; read-out: ABS IC50): 0.292 nM
IC50 (MIA-PACA2 cells; read-out: Rel IC50): 0.188 nM
SMILES: O=C1c2cc(-c3ccc(CN4CCOCC4)cc3)c3c4c(cc(NCCN5CCCC5)c(c24)C(=O)N1CCCN1CCOCC1)C(=O)N(CCCN1CCOCC1)C3=O [Example 2, 4-(4-(morpholinomethyl)phenyl)-2,7-bis(3-morpholinopropyl)-9-((2-(pyrrolidin-1-yl)ethyl)amino)benzo[lmn][3,8]phenanthroline-1,3,6,8(2H,7H)-tetraone]

IC50 (MIA-PACA2 cells; read-out: ABS IC50): 0.284 nM
IC50 (MIA-PACA2 cells; read-out: Rel IC50): 0.282 nM
SMILES: O=C1c2cc(-c3cccc(CN4CCCC4)c3)c3c4c(cc(NCCN5CCCC5)c(c24)C(=O)N1CCCN1CCOCC1)C(=O)N(CCCN1CCOCC1)C3=O [Example 3, 2,7-bis(3-morpholinopropyl)-4-((2-(pyrrolidin-1-yl)ethyl)amino)-9-(3-(pyrrolidin-1-ylmethyl)phenyl)benzo[lmn][3,8]phenanthroline-1,3,6,8(2H,7H)-tetraone]

IC50 (MIA-PACA2 cells; read-out: ABS IC50): 0.175 nM
IC50 (MIA-PACA2 cells; read-out: Rel IC50): 0.132 nM
SMILES: O=C1c2cc(-c3ccc(CN4CCCCC4)cc3)c3c4c(cc(NCCN5CCCC5)c(c24)C(=O)N1CCCN1CCOCC1)C(=O)N(CCCN1CCOCC1)C3=O [Example 4, 2,7-bis(3-morpholinopropyl)-4-(4-(piperidin-1-ylmethyl)phenyl)-9-((2-(pyrrolidin-1-yl)ethyl)amino)benzo[lmn][3,8]phenanthroline-1,3,6,8(2H,7H)-tetraone]

IC50 (MIA-PACA2 cells; read-out: ABS IC50): 0.18 nM
IC50 (MIA-PACA2 cells; read-out: Rel IC50): 0.239 nM
SMILES: CCN(CC)Cc1ccc(-c2cc3c4c(c(NCCN5CCCC5)cc5c4c2C(=O)N(CCCN2CCOCC2)C5=O)C(=O)N(CCCN2CCOCC2)C3=O)cc1 [Example 5, 4-(4-((diethylamino)methyl)phenyl)-2,7-bis(3-morpholinopropyl)-9-((2-(pyrrolidin-1-yl)ethyl)amino)benzo[lmn][3,8]phenanthroline-1,3,6,8(2H,7H)-tetraone]

IC50 (MIA-PACA2 cells; read-out: ABS IC50): 0.102 nM
IC50 (MIA-PACA2 cells; read-out: Rel IC50): 0.099 nM
SMILES: O=C1c2cc(-c3ccc(CNC4CCCC4)cc3)c3c4c(cc(NCCN5CCCC5)c(c24)C(=O)N1CCCN1CCOCC1)C(=O)N(CCCN1CCOCC1)C3=O [Example 6, 4-(4-((cyclopentylamino)methyl)phenyl)-2,7-bis(3-morpholinopropyl)-9-((2-(pyrrolidin-1-yl)ethyl)amino)benzo[lmn][3,8]phenanthroline-1,3,6,8(2H,7H)-tetraone]

IC50 (MIA-PACA2 cells; read-out: ABS IC50): 0.182 nM
IC50 (MIA-PACA2 cells; read-out: Rel IC50): 0.117 nM
SMILES: O=C1c2cc(-c3ccc(CN4CCCCCC4)cc3)c3c4c(cc(NCCN5CCCC5)c(c24)C(=O)N1CCCN1CCOCC1)C(=O)N(CCCN1CCOCC1)C3=O [Example 7, 4-(4-(azepan-1-ylmethyl)phenyl)-2,7-bis(3-morpholinopropyl)-9-((2-(pyrrolidin-1-yl)ethyl)amino)benzo[lmn][3,8]phenanthroline-1,3,6,8(2H,7H)-tetraone]

IC50 (MIA-PACA2 cells; read-out: ABS IC50): 0.277 nM
IC50 (MIA-PACA2 cells; read-out: Rel IC50): 0.174 nM
SMILES: CN1CCN(Cc2ccc(-c3cc4c5c(c(NCCN6CCCC6)cc6c5c3C(=O)N(CCCN3CCOCC3)C6=O)C(=O)N(CCCN3CCOCC3)C4=O)cc2)CC1 [Example 8]

SMILES: O=C1c2ccc3c4c(c(NCCN5CCCC5)cc(c24)C(=O)N1CCCN1CCOCC1)C(=O)N(CCCN1CCOCC1)C3=O [Example C1, reference compound]
IC50 (BX-PC3): 15.5 nM
half-life [1]: > 480 min
IC50 (CAPAN-1): 26.5 nM
solubility [5]: > 5000 µg/mL
IC50 (22RV1): 90 nM
FRET ΔTm, ° C. with GQ (GQ): 17.6 °C
IC50 (LNCaP): 394 nM
IC50 (DU145): 113 nM
IC50 (VCaP): 135 nM
fraction unbound [2]: 0.65
IC50 (PANC-1): 15.6 nM
IC50 (PC-3): 94 nM
Stability in saline at 0° C. [3]: >1 month
blood plasma ratio [4]: 10.9
IC50 (MIA-PACA2^gemR): 14.9 nM
IC50 (MIA-PACA2): 13 nM
tumours not showing complete regression, versus vehicle control (MIA-PACA2 tumours): reductions in tumour growth, leading to consistently smaller volumes than in the vehicle control groups
